Data from patent US9765037B2, “Compositions and methods for treating toxoplasmosis, cryptosporidiosis, and other apicomplexan protozoan related diseases” (University of Washington Through its Center for …, priority 2010, dated 2017).
Converted amounts (≈) assume the structure as drawn. Read-outs that look alike come from different tables or passages of the source.

Experiments:
PfCDPK4 = PfCDPK4 (Plasmodium falciparum (isolate 3D7), UniProt Q8IBS5); test: biochemical
[1] = test system: human promyelocytic leukemia (HL-60); test: Growth inhibition of human cell line HL-60
[2] = test system: human lymphocyte (CRL8155); test: Growth inhibition of human cell line CRL8155
glioma derived (SF539) = test: Growth inhibition of human cell line SF539
[3] = Solubility in buffers of various pH; assay type: physicochemical; conditions: buffer
PfCDPK1 = PfCDPK1 (Plasmodium falciparum (isolate 3D7), UniProt P62344); test: biochemical
[4] = test system: colorectal carcinoma (HC 2998); test: Growth inhibition of human cell line HC 2998
HckKD = HckKD (Homo sapiens (Human), UniProt P08631); test: Tyrosine kinase IC50, HckKD; assay type: biochemical; conditions: Table 9
Chain of HckKD (P08631 262-515): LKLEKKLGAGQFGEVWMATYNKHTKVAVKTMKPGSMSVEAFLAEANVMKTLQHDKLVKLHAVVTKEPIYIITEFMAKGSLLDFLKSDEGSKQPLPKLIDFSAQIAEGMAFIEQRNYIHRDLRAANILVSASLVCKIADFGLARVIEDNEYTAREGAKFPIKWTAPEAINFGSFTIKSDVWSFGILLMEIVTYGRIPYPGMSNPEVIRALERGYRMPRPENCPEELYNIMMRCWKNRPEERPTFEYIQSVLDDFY

TgCDPK1 = TgCDPK1 (Toxoplasma gondii, UniProt Q9BJF5); assay type: biochemical; conditions: read-out: TgCDPK1 IC50
Chain of TgCDPK1 (Q9BJF5 1-507): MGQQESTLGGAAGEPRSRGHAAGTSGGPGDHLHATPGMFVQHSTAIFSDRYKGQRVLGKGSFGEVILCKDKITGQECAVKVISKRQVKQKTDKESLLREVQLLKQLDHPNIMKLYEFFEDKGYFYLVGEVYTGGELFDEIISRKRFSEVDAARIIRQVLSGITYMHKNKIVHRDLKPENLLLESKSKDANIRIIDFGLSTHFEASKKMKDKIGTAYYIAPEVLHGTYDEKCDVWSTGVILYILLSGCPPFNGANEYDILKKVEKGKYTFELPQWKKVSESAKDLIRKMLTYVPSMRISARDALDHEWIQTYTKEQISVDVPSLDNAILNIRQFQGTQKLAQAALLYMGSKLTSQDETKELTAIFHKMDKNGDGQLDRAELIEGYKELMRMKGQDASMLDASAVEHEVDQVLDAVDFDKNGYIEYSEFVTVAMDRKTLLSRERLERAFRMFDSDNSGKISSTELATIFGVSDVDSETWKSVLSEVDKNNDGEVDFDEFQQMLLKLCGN

CpCDPK1 = CpCDPK1 (Cryptosporidium parvum (strain Iowa II), UniProt A3FQ16); test: biochemical; assay type: biochemical
Chain of CpCDPK1 (A3FQ16 1-538): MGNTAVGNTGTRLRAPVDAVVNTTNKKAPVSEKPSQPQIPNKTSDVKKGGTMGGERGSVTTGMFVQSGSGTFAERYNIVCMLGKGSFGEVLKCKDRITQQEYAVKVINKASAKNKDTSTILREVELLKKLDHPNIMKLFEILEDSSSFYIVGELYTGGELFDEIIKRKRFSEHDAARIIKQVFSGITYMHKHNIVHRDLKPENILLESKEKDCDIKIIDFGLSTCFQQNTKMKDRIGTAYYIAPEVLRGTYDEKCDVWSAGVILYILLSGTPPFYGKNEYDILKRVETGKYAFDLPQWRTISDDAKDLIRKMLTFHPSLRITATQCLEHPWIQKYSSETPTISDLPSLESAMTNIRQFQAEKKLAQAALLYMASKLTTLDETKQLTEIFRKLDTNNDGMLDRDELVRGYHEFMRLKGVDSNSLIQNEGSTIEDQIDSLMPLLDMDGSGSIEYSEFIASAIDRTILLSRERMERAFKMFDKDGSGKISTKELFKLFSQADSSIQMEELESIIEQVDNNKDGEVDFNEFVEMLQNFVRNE

SMILES	EC50 (PfCDPK4) [nM]	EC50 (PfCDPK1) [nM]	Cell Toxicity HL60, % at 10 μM [1]	Cell Toxicity CRL8155, % at 10 μM [2]	Cell Toxicity SF539, % at 10 μM (glioma derived (SF539)) [% at 10 μM]	IC50 (HckKD) [µM]	Cell Toxicity HCC2998, % at 10 μM [4] [% at 10 μM]	also measured
CC(C)(C)n1nc(-c2ccc3ccccc3c2)c2c(N)ncnc21 [Compound 2, 1-tert-butyl-3-(naphthalen-2-yl)-1H-pyrazolo[3,4-d]pyrimidin-4-amine]	480	1250						Cell Toxicity HL60, % at 25 μM [1]: <30% at 25 μM;; Cell Toxicity HL60, % at 30 μM [1]: <30% at 30 μM; Cell Toxicity CRL8155, % at 25 μM [2]: 37% at 25 μM;; Cell Toxicity CRL8155, % at 30 μM [2]: <30% at 30 μM; Cell Toxicity SF539, % at 25 μM (glioma derived (SF539)): <30% at 25 μM; solubility ([3]; aqueous buffer, pH 2.0, read-out: Experimental Solubility pH 2.0): 43 µM (≈ 13.6 µg/mL); solubility ([3]; pH 6.5, aqueous buffer, read-out: Experimental Solubility pH 6.5): 2.4 µM (≈ 0.762 µg/mL); solubility ([3]; pH 7.4, aqueous buffer, read-out: Experimental Solubility pH 7.4): 1.5 µM (≈ 0.476 µg/mL); Cell Toxicity HCC2998, % at 25 μM [4]: <30% at 25 μM
CC(C)n1nc(Cc2cccc3ccccc23)c2c(N)ncnc21 [Compound 3, 1-isopropyl-3-(naphthalen-1-ylmethyl)-1H-pyrazolo[3,4-d]pyrimidin-4-amine]			<30% at 10 μM	<30% at 10 μM	<30	1.38	<30	
Nc1ncnc2c1c(Cc1cccc3ccccc13)nn2C1CCNCC1 [Compound 5g, 3-(naphthalen-1-ylmethyl)-1-(piperidin-4-yl)-1H-pyrazolo[3,4-d]pyrimidin-4-amine]			<30% at 10 μM	<30% at 10 μM	<30		<30	IC50 (TgCDPK1): 59 nM; IC50 (CpCDPK1; read-out: IC50 (μM) CpCDPK1): 0.056 µM
Nc1ncnc2c1c(Cc1cccc3ccccc13)nn2CCC1CCNCC1 [Compound 5i, 3-(naphthalen-1-ylmethyl)-1-(2-(piperidin-4-yl)ethyl)-1H-pyrazolo[3,4-d]pyrimidin-4-amine]	603		<30% at 10 μM;	<30% at 10 μM;	<30		<30	Cell Toxicity HL60, % at 30 μM [1]: <30% at 30 μM; Cell Toxicity CRL8155, % at 30 μM [2]: <30% at 30 μM; IC50 (TgCDPK1): 52 nM; IC50 (CpCDPK1; read-out: CpCDPK1 IC50): 0.034 µM
CC(C)n1nc(-c2ccc3ccccc3c2)c2c(N)ncnc21 [Compound 7p, 1-isopropyl-3-(naphthalen-2-yl)-1H-pyrazolo[3,4-d]pyrimidin-4-amine]	142	380	35% at 10 μM		54			Cell Toxicity HL60, % at 25 μM [1]: 50% at 25 μM;; GI50 ([1]; read-out: GI50 (μM) HL60, human cell line HL60): > 10 µM; Cell Toxicity CRL8155, % at 25 μM [2]: 46% at 25 μM; GI50 ([2]; read-out: GI50 (μM) CRL8155, human cell line CRL8155): > 10 µM; Cell Toxicity SF539, % at 25 μM (glioma derived (SF539)): 84% at 25 μM;; GI50 (glioma derived (SF539); read-out: GI50 (μM) SF539, human cell line SF539): > 10 µM; Cell Toxicity HCC2998, % at 25 μM [4]: <30% at 25 μM; GI50 ([4]; read-out: GI50 (μM) HCC2998, human cell line HCC2998): ~10 µM
CC(C)n1nc(-c2cnc3ccccc3c2)c2c(N)ncnc21 [Compound 7t, 1-isopropyl-3-(quinolin-3-yl)-1H-pyrazolo[3,4-d]pyrimidin-4-amine]	169	1360	<30% at 10 μM	<30% at 10 μM	<30		<30	
CC(C)Oc1ccc2cc(-c3nn(C(C)C)c4ncnc(N)c34)ccc2c1 [Compound 11, 3-(6-isopropoxynaphthalen-2-yl)-1-isopropyl-1H-pyrazolo[3,4-d]pyrimidin-4-amine]	549	373	<30% at 10 μM	<30% at 10 μM	<30	0.541	<30	
CC(C)Oc1ccc2cc(-c3nn(CC4CCNCC4)c4ncnc(N)c34)ccc2c1 [Compound 32, 3-(6-isopropoxynaphthalen-2-yl)-1-(piperidin-4-ylmethyl)-1H-pyrazolo[3,4-d]pyrimidin-4-amine]	55.4	365				> 10		
